# Test results taken from patent publication US4808718A, “Fused polycyclic and bridged compounds useful as calcium channel blockers” (Merck & Co., Inc., priority 1986, dated 1989).
# Read-outs that look alike come from different tables or passages of the source.
# Target: T1, nitrendipine binding (purified sarcolemal vesicles) (Homo sapiens, UniProt Q13936)
# T1 construct: purified sarcolemal vesicles in 50 mM tris-HCl; from tissue
# Assay: nitrendipine binding assay ([^3 H] nitrendipine, purified sarcolemal vesicles)
# Description: As stated earlier, the compounds of the present invention have a property that enables them to be used as calcium entry blockers in the treatment of cardiovascular disorders.
# In a representative assay, […] of purified sarcolemal vesicles in 50 mM tris-HCl, 10 uM calcium chloride, and […] magnesium chloride at pH 7.4 were incubated with […] [^3 H] nitrendipine (78 Ci/mmol) with or without test compound in a final volume of […] for 3 hours at 25° C. The inhibition constant Ki is determined according to the following equation: [formula] where I50 is the compound concentration that produces 50 percent inhibiton of binding, [L] is ligand concentration, and kd is the affinity constant of the ligand.
# [1] = purified sarcolemal vesicles, 50 mM tris-HCl, pH 7.4, 0.23 mM [^3 H] nitrendipine, 3 hours at 25° C., read-out: Ki, Inhibition of Nitrendipine Binding
# T1 sequence (Q13936 whole entry): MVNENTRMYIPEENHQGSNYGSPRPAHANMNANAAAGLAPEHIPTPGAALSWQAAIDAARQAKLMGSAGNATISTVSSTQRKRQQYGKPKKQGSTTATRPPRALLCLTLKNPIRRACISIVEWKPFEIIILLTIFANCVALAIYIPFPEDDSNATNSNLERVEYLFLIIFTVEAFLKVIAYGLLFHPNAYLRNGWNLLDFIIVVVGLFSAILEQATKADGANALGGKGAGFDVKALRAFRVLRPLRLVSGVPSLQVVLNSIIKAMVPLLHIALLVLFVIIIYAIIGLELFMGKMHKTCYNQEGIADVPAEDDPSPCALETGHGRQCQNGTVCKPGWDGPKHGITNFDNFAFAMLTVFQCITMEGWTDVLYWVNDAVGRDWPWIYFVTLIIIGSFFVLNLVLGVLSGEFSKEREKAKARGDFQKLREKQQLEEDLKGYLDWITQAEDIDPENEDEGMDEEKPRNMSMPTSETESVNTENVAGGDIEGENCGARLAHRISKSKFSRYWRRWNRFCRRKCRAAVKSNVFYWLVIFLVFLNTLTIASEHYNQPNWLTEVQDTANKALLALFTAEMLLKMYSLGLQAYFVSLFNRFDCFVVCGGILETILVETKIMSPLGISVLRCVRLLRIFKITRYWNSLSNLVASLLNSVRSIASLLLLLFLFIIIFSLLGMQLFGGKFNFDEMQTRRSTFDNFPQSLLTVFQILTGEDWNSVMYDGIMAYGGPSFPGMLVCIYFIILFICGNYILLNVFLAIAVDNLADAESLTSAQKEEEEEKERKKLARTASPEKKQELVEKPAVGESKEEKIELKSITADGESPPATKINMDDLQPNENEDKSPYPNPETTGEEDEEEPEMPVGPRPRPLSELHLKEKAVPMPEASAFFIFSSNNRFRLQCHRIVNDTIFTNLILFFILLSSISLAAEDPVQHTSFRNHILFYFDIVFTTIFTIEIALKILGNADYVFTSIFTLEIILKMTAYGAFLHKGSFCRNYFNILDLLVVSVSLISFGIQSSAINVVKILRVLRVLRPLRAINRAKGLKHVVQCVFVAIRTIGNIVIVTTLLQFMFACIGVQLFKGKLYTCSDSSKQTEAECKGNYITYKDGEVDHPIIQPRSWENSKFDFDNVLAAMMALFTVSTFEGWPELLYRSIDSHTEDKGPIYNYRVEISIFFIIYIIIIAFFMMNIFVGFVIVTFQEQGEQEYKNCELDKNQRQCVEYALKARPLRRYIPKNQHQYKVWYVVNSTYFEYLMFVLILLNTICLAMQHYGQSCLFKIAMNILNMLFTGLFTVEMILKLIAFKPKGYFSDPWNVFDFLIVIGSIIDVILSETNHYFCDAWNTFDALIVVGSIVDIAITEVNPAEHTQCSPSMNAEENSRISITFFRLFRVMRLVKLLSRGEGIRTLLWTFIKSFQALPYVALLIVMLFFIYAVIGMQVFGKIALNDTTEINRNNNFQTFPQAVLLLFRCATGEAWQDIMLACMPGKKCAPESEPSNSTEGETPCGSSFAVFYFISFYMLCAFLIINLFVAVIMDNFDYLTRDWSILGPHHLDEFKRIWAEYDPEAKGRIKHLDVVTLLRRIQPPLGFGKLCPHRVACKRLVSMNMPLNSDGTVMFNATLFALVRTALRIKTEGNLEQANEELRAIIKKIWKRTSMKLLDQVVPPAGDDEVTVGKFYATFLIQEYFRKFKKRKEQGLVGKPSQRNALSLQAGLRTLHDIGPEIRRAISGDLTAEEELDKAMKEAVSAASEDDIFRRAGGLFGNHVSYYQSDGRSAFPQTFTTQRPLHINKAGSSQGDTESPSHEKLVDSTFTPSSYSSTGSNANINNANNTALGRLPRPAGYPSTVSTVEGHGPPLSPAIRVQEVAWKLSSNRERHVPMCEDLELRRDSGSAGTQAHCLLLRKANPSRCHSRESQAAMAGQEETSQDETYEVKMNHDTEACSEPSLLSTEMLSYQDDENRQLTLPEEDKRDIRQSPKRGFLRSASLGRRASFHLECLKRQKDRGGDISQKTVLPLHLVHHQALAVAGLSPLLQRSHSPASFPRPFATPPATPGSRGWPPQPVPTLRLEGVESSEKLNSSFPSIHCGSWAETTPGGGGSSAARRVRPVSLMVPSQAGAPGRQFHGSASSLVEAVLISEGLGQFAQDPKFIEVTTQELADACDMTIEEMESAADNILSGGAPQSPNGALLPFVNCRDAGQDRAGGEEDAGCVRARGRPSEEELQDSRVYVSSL
# T1 sequence (P54289 25-944 partner limits assumed): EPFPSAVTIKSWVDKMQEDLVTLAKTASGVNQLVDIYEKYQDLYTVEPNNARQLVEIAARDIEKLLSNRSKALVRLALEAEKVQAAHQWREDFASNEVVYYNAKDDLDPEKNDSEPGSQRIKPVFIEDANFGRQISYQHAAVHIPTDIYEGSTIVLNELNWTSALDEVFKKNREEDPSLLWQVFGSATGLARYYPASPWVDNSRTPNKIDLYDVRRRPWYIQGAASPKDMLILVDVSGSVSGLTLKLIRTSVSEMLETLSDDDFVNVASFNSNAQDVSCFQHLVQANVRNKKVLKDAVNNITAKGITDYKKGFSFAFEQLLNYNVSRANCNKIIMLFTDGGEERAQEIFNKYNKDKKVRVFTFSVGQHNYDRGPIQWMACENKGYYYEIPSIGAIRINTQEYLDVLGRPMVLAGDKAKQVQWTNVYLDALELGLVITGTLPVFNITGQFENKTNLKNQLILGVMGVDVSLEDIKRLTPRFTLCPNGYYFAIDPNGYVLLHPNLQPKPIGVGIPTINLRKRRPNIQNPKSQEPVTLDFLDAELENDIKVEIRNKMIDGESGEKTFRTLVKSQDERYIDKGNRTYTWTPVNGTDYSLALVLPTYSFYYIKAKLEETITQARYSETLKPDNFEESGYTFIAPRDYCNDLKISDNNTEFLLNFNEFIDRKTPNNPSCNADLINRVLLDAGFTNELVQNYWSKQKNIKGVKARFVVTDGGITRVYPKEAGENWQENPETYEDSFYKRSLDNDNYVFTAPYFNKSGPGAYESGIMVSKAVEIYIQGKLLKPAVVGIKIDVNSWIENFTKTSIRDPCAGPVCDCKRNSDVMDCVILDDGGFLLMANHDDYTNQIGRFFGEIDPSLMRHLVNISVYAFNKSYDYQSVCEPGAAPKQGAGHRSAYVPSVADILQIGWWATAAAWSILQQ
# T1 sequence (P54289 945-1103 partner limits assumed): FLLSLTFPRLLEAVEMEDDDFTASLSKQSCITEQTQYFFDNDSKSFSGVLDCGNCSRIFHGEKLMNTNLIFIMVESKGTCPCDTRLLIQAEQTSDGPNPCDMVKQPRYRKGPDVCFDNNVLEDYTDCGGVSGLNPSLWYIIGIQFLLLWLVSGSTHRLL
# T1 sequence (Q08289 whole entry partner): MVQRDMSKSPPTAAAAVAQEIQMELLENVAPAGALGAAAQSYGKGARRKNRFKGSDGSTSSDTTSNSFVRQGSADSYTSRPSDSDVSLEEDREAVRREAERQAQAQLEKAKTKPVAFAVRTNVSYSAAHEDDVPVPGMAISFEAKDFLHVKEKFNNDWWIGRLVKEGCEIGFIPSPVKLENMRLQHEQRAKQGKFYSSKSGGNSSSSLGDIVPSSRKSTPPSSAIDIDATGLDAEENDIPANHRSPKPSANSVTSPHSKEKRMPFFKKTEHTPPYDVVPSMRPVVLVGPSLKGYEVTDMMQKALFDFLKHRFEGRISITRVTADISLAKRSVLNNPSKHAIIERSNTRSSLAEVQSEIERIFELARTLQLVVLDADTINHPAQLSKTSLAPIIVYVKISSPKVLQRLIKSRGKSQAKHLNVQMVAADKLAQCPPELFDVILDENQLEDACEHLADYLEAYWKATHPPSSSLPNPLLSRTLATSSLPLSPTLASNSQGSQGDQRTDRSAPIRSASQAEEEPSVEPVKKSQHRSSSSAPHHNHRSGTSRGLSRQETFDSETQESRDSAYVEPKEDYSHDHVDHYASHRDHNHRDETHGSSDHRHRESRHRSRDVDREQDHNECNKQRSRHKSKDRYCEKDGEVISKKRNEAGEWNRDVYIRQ
SMILES,Ki [1],Ki
COC(=O)C1C(c2ccccc2)C2(C(=O)OC)C(C)=NC1(C)CC2c1ccccc1 (stereo not drawn) [Example 2],34 µM,–
"COC(=O)C1C(c2ccccc2)C2(C(=O)OC)C(C)=NC1(C)CC2C[Si](C)(C)C (stereo not drawn) [Example 1, Dimethyl 1,3-dimethyl-5-phenyl-8-[(trimethylsilyl)methyl]-2-azabicyclo[2.2.2]oct-2-ene-4,6-dicarboxylate]",–,17 µM
"COC(=O)C1C(c2ccccc2)C2(C(=O)OC)C(C)=NC1(C)C1CC=CC12 (stereo not drawn) [Example 3, Dimethyl 1,4A,7,8A-tetrahydro-1,3-dimethyl-8-phenyl-1,4-ethano-4H-2-azetidinyl-4,9-dicarboxylate]",61 µM,–
